Data set [1] concerns insulin-degrading enzyme (IDE), His-Tag, rat, recombinant. Briefly: IDE (135 nM) in PBS (pH 7.4). As to conditions: 37 °C, up to 180 min.
Data set [2] has as its target T1, IDE, His-Tag, rat, recombinant (Rattus norvegicus, UniProt P35559).
T1 construct: His-Tag; purchased Sigma Aldrich; host or cells: Spodoptera frugiperda
T1 sequence (P35559 1-1019): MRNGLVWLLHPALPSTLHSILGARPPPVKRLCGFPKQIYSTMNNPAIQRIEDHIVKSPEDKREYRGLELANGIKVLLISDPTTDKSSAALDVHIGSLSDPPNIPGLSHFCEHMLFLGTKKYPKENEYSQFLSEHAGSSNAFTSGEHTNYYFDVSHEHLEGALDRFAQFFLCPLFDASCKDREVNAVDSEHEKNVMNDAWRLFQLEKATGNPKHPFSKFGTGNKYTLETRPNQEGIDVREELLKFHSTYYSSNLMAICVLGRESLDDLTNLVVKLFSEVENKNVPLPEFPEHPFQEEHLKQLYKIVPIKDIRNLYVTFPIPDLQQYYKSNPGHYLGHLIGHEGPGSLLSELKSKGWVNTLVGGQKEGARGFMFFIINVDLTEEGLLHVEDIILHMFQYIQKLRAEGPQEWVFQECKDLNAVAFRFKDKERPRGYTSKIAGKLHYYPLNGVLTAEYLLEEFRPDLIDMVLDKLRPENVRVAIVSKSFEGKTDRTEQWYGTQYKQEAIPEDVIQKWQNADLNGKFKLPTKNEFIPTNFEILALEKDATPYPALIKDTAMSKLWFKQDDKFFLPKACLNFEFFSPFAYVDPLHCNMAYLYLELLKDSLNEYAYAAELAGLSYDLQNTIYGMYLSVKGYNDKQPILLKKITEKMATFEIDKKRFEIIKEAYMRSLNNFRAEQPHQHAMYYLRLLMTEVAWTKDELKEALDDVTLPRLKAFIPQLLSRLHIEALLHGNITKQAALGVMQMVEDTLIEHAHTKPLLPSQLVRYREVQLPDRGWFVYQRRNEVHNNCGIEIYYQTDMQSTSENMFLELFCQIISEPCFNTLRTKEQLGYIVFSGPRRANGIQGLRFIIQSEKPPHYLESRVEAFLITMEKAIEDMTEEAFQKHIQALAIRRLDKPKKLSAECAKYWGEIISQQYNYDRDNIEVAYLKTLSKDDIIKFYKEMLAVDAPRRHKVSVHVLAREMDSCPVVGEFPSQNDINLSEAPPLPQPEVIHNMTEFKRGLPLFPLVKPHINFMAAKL
Briefly: HPLC-MS enzymatic assay: degradation of NPFF and NPAF by IDE. Type of data set: in vitro ADME. As to conditions: PBS pH 7.4, 37 °C, LC-ESI/MS; for cleavage of the peptide by IDE: stability with named protease IDE (135 nM), peptide 20 μM, aliquots 0-180 min, stopped with 1% TFA, repeated three times. The protocol:
IDE, His-Tag, rat, recombinant, Spodoptera frugiperda, were purchased from Sigma Aldrich. […] Peptides were purified by the high-performance liquid chromatography (HPLC) and tested for their purity using ESI MS. Purity was above 95%. […] The liquid chromatography-electrospray ionisation mass spectrometry (LC-ESI/MS) experiments were carried out by using a LCQ Deca XP instrument (Thermo Electron Corporation, USA). All solutions were incubated in PBS (pH 7.4) at 37 °C. […] Samples were kept at 4 °C before HPLC-MS analysis. […] Separation of the generated fragments was carried out by the reversed-phase chromatography using a Jupiter® 5 µm C4 300 Å (LC Column 150 × 4.6 mm) column from Phenomenex at the flow rate of 250 μl/min. MS-MS experiments were used for final identification of the peptide fragments. All methodological details and a semiquantitative method were already described in our previous work, and the absolute intensities of the peaks were normalised to the total ion current[18]^,[24]^,[25]. The experiments were repeated three times to ensure reproducibility and estimate the error bars on the HPLC-MS results.

Data set [3] deals with T1, IDE, His-Tag, rat, recombinant. Briefly: Insulin degradation by IDE in the presence of NPAF/NPFF (HPLC-MS). The conditions noted are these: PBS pH 7.4, 37 °C, LC-ESI/MS; for effect on insulin degradation by IDE after 3 h pre-incubation of the neuropeptide with IDE (NP fragments): NP 20 μM incubated 3 h with IDE 135 nM, then insulin 10 μM added, data not shown. Type of data set: biochemical. The protocol: IDE, His-Tag, rat, recombinant, Spodoptera frugiperda, were purchased from Sigma Aldrich. NPAF, NPFF were manually synthesised by the solid-phase method using Fmoc chemistry. Peptides were purified by the high-performance liquid chromatography (HPLC) and tested for their purity using ESI MS. […] The liquid chromatography-electrospray ionisation mass spectrometry (LC-ESI/MS) experiments were carried out by using a LCQ Deca XP instrument (Thermo Electron Corporation, USA). All solutions were incubated in PBS (pH 7.4) at 37 °C. After incubations, sample aliquots at time 0; 10; 30; 45; 60 and 180 min were taken and a 10% solution of TFA was added to the aliquots in order to achieve a final TFA concentration of 1% in all the samples to stop the enzymatic reaction. Samples were kept at 4 °C before HPLC-MS analysis. […] Separation of the generated fragments was carried out by the reversed-phase chromatography using a Jupiter® 5 µm C4 300 Å (LC Column 150 × 4.6 mm) column from Phenomenex at the flow rate of 250 μl/min. MS-MS experiments were used for final identification of the peptide fragments. All methodological details and a semiquantitative method were already described in our previous work, and the absolute intensities of the peaks were normalised to the total ion current[18]^,[24]^,[25]. The experiments were repeated three times to ensure reproducibility and estimate the error bars on the HPLC-MS results.

Entries after “also recorded” stand apart in the source; their conditions may differ.

The values below come from paper PMC7801110 (Journal of Enzyme Inhibition and Medicinal Chemistry, 2021).

HPhe-Leu-Phe-Gln-Pro-Gln-Arg-PheOH: the cleaved bond entry in data set [1] is reported as “Gln-Arg, major, 10 min”.

For “HAla-Gly-Glu-Gly-Leu-Ser-Ser-Pro-Phe-Trp-Ser-Leu-Ala-Ala-Pro-Gln-Arg-PheOH”, in data set [1], the cleaved bond entry was “Gly-Glu; also recorded: Ser-Leu, major, 10 min; also recorded: Leu-Ala, major, 10 min; also recorded: Gln-Arg, major, 10 min”.

Consider “HAla-Gly-Glu-Gly-Leu-Ser-Ser-Pro-Phe-Trp-Ser-Leu-Ala-Ala-Pro-GlnOH [cryptic peptide at 1617.8 m/z, cryptic peptide formed from NPAF by IDE, detected at m/z 1617.8]”, for which the “incubation time at which the relative intensity of the cryptic peptide reaches a maximum” value in data set [2] (NPAF 20 μM with IDE 135 nM, intensities normalised to total ion current, abundance diminishes afterwards) is recorded as “about 30 min”.

As to “HAla-Gly-Glu-Gly-Leu-Ser-Ser-Pro-Phe-Trp-Ser-Leu-Ala-Ala-Pro-Gln-Arg-PheOH [NPAF, neuropeptide generated from the NPFF precursor (pro-NPFF(A)), manually synthesised by Fmoc solid-phase method]”, the “effect of the neuropeptide on insulin degradation by IDE (insulin molecular peak decrease)” value in data set [3] (NP 20 μM co-incubated with insulin 10 μM and IDE 135 nM, performed three times) is on record as “activating effect”. The “effect on insulin degradation by IDE after 3 h pre-incubation of the neuropeptide with IDE (NP fragments)” value in data set [3] is listed as “no activation effect”. Moreover, the “cleavage of the peptide by IDE” value in data set [2] is reported as “able to cleave”.

Regarding “HPhe-Leu-Phe-Gln-Pro-Gln-Arg-PheOH [NPFF, neuropeptide generated from the NPFF precursor (pro-NPFF(A)), manually synthesised by Fmoc solid-phase method]”, the “effect on insulin degradation by IDE after 3 h pre-incubation of the neuropeptide with IDE (NP fragments)” value in data set [3] is listed as “no activation effect”. Also, the “cleavage of the peptide by IDE” value in data set [2] is “able to cleave”.
